Test system: post-menopausal women
Test: Example 3: severity of moderate to severe VMS
Assay type: in vivo, human
Details: 15 mg and 20 mg vs placebo; weeks 4 and 12 (FIG. 12)
Description: A further clinical study was designed to evaluate the effect of 15 or 20 mg estetrol (E4) monohydrate, or placebo on the severity and frequency of vasomotor symptoms (VMS) and the safety of E4 20 mg. The inclusion and exclusion criteria as described for Example 2 were maintained for the present Example (i.e. Example 3).
• 1. Mean change in weekly frequency of moderate to severe vasomotor symptoms (VMS) from Baseline to Week 4 (Efficacy Study Part) [Time Frame: Baseline and Week 4]: • The weekly frequency of moderate to severe VMS at Baseline and Week 4 is defined as the total number (sum) of all recorded moderate to severe VMS experienced during the last 7 consecutive days prior randomization for Baseline and at Week 4. Mean change=mean weekly frequency at Week 4-mean weekly frequency at Baseline. • 2. Mean change in weekly frequency of moderate to severe vasomotor symptoms (VMS) from Baseline to Week 12 (Efficacy Study Part) [Time Frame: Baseline and Week 12] • The weekly frequency of moderate to severe VMS at Baseline and Week 12 is defined as the total number (sum) of all recorded moderate to severe VMS experienced during the last 7 consecutive days prior randomization for Baseline and at Week 12. Mean change=mean weekly frequency at Week 12-mean weekly frequency at Baseline. • 3. […]

Q: For `C[C@]12CC[C@@H]3c4ccc(O)cc4CC[C@H]3[C@@H]1[C@@H](O)[C@@H](O)[C@@H]2O` [E4 monohydrate, estetrol monohydrate], which “severity of moderate to severe VMS” value is on record?
A: significantly decreased
